From patent US12029217B2, “Safened compositions comprising pyridine carboxylate herbicides and isoxadifen” (Corteva Agriscience LLC, priority 2018, dated 2024)

Tests used:
Assay type in all cases: in vivo
[1] = system: Polygonum convolvulus (wild buckwheat); assay: Greenhouse postemergence visual injury, wild buckwheat (POLCO); settings: Compound A 20 g/ha, Example 6
From the text: (§1) Seeds of the desired test plant species were planted in a 90:10% v/v (volume/volume) mixture of PRO-MIX® BX (Premier Tech Horticulture, Quakertown, PA, USA) and PROFILE® GREENS GRADE™ (Profile Products LLC, Buffalo Grove, IL, USA) planting mixture, which typically has a pH of 5.2 to 6.2 and an organic matter content of at least 50 percent, in plastic pots with a surface area of 103.2 square centimeters (cm^2). When required to ensure good germination and healthy plants, a fungicide treatment and/or other chemical or physical treatment was applied. The plants were grown for 7-36 days (d) in a greenhouse with an approximate 14-hour (h) photo-period which was maintained at about 23° C. during the day and 22° C. during the night. Nutrients and water were added on a regular basis and supplemental lighting was provided with overhead metal halide 1000-Watt lamps as necessary. The plants were employed for testing when they reached the second or third true leaf stage.
(§2) Emulsifiable concentrates of each of each pyridine carboxylate herbicide (Compound A or Compound B) were prepared at 100 grams acid equivalent per liter (g ae/L). An aliquot of each emulsifiable concentrate was placed in a 25 mL glass vial and diluted with an aqueous mixture of 1.25% (v/v) ACTIROB® B esterified rapeseed oil (Bayer Crop Science, Research Triangle Park, NC, USA) or MSO® Concentrate with LECI-TECH® methylated soybean oil (Loveland Products, Loveland, CO, USA) to obtain concentrated stock solutions at the highest application rate for each herbicide, based upon a 12 milliliter (mL) application volume at a rate of 187 liters per hectare (L/ha). The concentrated stock solutions were further diluted with an aqueous mixture of 1.25% v/v ACTIROB® B or MSO® Concentrate with LECI-TECH® to obtain stock solutions at reduced application rates for each herbicide. Spray solutions of the herbicide combinations (Compound A or Compound B plus safener) were prepared by adding weighed amounts or aliquots of the safener to the stock solutions of Compound A or Compound B to form 12-mL spray solutions in two-way combinations.
(§3) The spray solutions were applied to the plant material with an overhead Mandel track sprayer equipped with 8002E nozzles calibrated to deliver 187 L/ha over an application area of 0.503 square meters (m^2) at a spray height of 18 inches (43 centimeters (cm)) above the average plant canopy. […]
(§4) The treated plants and control plants were placed in a greenhouse as described above and watered by sub-irrigation to prevent wash-off of the test compounds. After 20-22 d, the condition of the test plants as compared with that of the control plants was determined visually and scored on a scale of 0 to 100 percent where 0 corresponds to no injury and 100 corresponds to complete kill.

[2] = system: Setaria faberi (giant foxtail); assay: Greenhouse postemergence visual injury, giant foxtail (SETFA)
From the text: as §1, §2
(§5) The spray solutions were applied to the plant material with an overhead Mandel track sprayer equipped with 8002E nozzles calibrated to deliver 187 L/ha over an application area of 0.503 square meters (m^2) at a spray height of 18 inches (43 centimeters (cm)) above the average plant canopy. Control plants were sprayed in the same manner with the solvent blank. All herbicide (component a) application rates are given as “g ae/ha” and all safener (component b) application rates are given as “g ai/ha.”
as §4

[3] = system: Eleusine indica (goosegrass); assay: Greenhouse postemergence visual injury, goosegrass (ELEIN); settings: Example 7
From the text: as §1, §2, §3, §4

[4] = system: Sorghum vulgare (sorghum); assay: Greenhouse postemergence visual injury, sorghum (SORVU); settings: Compound A 40 g/ha, Example 5
From the text: as §1, §2, §5, §4

[5] = system: Oryza sativa (common rice); assay: Greenhouse postemergence visual injury, rice (ORYSA); settings: Compound A 20 g/ha, Example 6
From the text: as §1, §2, §3, §4

[6] = system: Leptochloa chinensis (Chinese sprangletop); assay: Greenhouse postemergence visual injury, Chinese sprangletop (LEFCH); settings: Compound A 20 g/ha, Example 6
From the text: as §1, §2, §3, §4

[7] = system: Cirsium arvense (Canada thistle); assay: Greenhouse postemergence visual injury, Canada thistle (CIRAR); settings: Compound A 20 g/ha, Example 6
From the text: as §1, §2, §3, §4

[8] = system: Lolium multiflorum (Italian ryegrass); assay: Greenhouse postemergence visual injury, Italian ryegrass (LOLMU)
From the text: as §1, §2, §5, §4

[9] = system: Amaranthus tamariscinus (common water hemp); assay: Greenhouse postemergence visual injury, common water hemp (AMATA); settings: Example 7
From the text: as §1, §2, §3, §4

Kochia scoparia (kochia) = assay: Greenhouse postemergence visual injury, kochia (KCHSC); settings: Compound A 20 g/ha, Example 6
From the text: as §1, §2, §3, §4

[10] = system: Cyperus esculentus (nutsedge); assay: Greenhouse postemergence visual injury, nutsedge (CYPES)
From the text: as §1, §2, §5, §4

[11] = system: Chenopodium album L. (common lambsquarters); assay: Greenhouse postemergence visual injury, common lambsquarters (CHEAL); settings: Compound A 20 g/ha, Example 6
From the text: as §1, §2, §3, §4

[12] = system: Saccharum officinarum (sugarcane); assay: Greenhouse postemergence visual injury, sugarcane (SACOF); settings: Example 3
From the text: as §1, §2, §5, §4

[13] = system: Ambrosia artemisiifolia (common ragweed); assay: Greenhouse postemergence visual injury, common ragweed (AMBEL); settings: Example 7
From the text: as §1, §2, §3, §4

[14] = system: Triticum aestivum (spring wheat); assay: Greenhouse postemergence visual injury, spring wheat (TRZAS)
From the text: as §1, §2, §5, §4

[15] = system: Triticum aestivum (winter wheat); assay: Greenhouse postemergence visual injury, winter wheat (TRZAW)
From the text: as §1, §2, §5, §4

[16] = system: Digitaria sanguinalis (large crabgrass); assay: Greenhouse postemergence visual injury, large crabgrass (DIGSA)
From the text: as §1, §2, §5, §4

[17] = system: Matricaria chamomilla (wild chamomile); assay: Greenhouse postemergence visual injury, wild chamomile (MATCH); settings: Compound A 20 g/ha, Example 1
From the text: as §1, §2, §3, §4

[18] = system: Abutilon theophrasti (velvetleaf); assay: Greenhouse postemergence visual injury, velvetleaf (ABUTH); settings: Compound A 20 g/ha, Example 6
From the text: as §1, §2, §3, §4

## N#CCOC(=O)c1nc(-c2ccc3cc[nH]c3c2F)c(F)c(N)c1Cl [Compound A, cyanomethyl 4-amino-3-chloro-5-fluoro-6-(7-fluoro-1H-indol-6-yl)pyridine-2-carboxylate]
[1]
  % visual injury, Ob: 100%
[2]; Compound A 10 g/ha, Example 7
  % visual injury, Ob: 85%
[2]; Compound A 20 g/ha, Example 6
  % visual injury, Ob: 65%
[2]; Compound A 20 g/ha, Example 7
  % visual injury, Ob: 95%
[3]; Compound A 10 g/ha
  % visual injury, Ob: 73%
[3]; Compound A 20 g/ha
  % visual injury, Ob: 93%
[4]
  % visual injury, Ob: 50%
[5]
  % visual injury, Ob: 10%
[6]
  % visual injury, Ob: 60%
[7]
  % visual injury, Ob: 95%
[8]; Compound A 10 g/ha, Example 7
  % visual injury, Ob: 18%
[8]; Compound A 20 g/ha, Example 6
  % visual injury, Ob: 5%
[8]; Compound A 20 g/ha, Example 7
  % visual injury, Ob: 60%
[9]; Compound A 10 g/ha
  % visual injury, Ob: 98%
[9]; Compound A 20 g/ha
  % visual injury, Ob: 100%
Kochia scoparia (kochia)
  % visual injury, Ob: 97%
[10]; Compound A 20 g/ha, Example 6
  % visual injury, Ob: 30%
[10]; Compound A 40 g/ha, Example 4
  % visual injury, Ob: 73%
[10]; Compound A 40 g/ha, Example 5
  % visual injury, Ob: 73%
[11]
  % visual injury, Ob: 88%
[12]; Compound A 5 g/ha
  % visual injury, Ob: 18%
[12]; Compound A 10 g/ha
  % visual injury, Ob: 48%
[12]; Compound A 20 g/ha
  % visual injury, Ob: 55%
[12]; Compound A 40 g/ha
  % visual injury, Ob: 60%
[13]; Compound A 10 g/ha
  % visual injury, Ob: 100%
[13]; Compound A 20 g/ha
  % visual injury, Ob: 100%
[14]; Compound A 20 g/ha, Example 1
  % visual injury, Ob: 25%
[14]; Compound A 40 g/ha, Example 2
  % visual injury, Ob: 23%
[14]; Compound A 40 g/ha, Example 4
  % visual injury, Ob: 30%
[15]; Compound A 20 g/ha, Example 6
  % visual injury, Ob: 25%
[15]; Compound A 40 g/ha, Example 2
  % visual injury, Ob: 25%
[16]; Compound A 10 g/ha, Example 7
  % visual injury, Ob: 28%
[16]; Compound A 20 g/ha, Example 6
  % visual injury, Ob: 30%
[16]; Compound A 20 g/ha, Example 7
  % visual injury, Ob: 40%
[17]
  % visual injury, Ob: 50%
[18]
  % visual injury, Ob: 95%
